Measured values: ChEMBL document CHEMBL4295262, “Evaluation of the utility of stem-cell derived cardiomyocytes for drug proarrhythmic potential” (2019)

Columns and labels:
[1] = (§1) Electrical activity assay on cell lines treated with a given drug. DMSO was used as a vehicle and a control, unblinded dofetilide was used as a control.; assay type: cell-based; design: APDc: unit not given here; settings: human, ipsc-cm
[2] = as §1; assay type: ADME, cell-based; settings: human, ipsc-cm, 0.005 µM; concentration (um) 0.005 uM
[3] = as §1; assay type: ADME, cell-based; design: FPDc: unit not given here; settings: human, ipsc-cm
[4] = as §1; settings: human, ipsc-cm
[5] = as §1; settings: human, ipsc-cm; remark: listed apart in the source
[6] = as §1; assay type: ADME, cell-based; settings: human, ipsc-cm, 0.003 µM; concentration (um) 0.003 uM
[7] = as §1; settings: human, ipsc-cm, 0.003 µM
[8] = as §1; settings: human, ipsc-cm; remark: listed apart in the source
[9] = as §1; assay type: ADME, cell-based; design: FPDc: unit not given here; settings: human, ipsc-cm, 0.003 µM; concentration (um) 0.003 uM
[10] = 0.0003169 µM, concentration (um) 0.000316912 uM
[11] = 0.001001 µM, concentration (um) 0.00100144 uM
[12] = 0.003165 µM, concentration (um) 0.00316456 uM
[13] = 0.005 µM, concentration (um) 0.005 uM
[14] = 0.0032 µM, concentration (um) 0.0032 uM
[15] = 0.01 µM, concentration (um) 0.01 uM

Structure (SMILES): CN(CCOc1ccc(NS(C)(=O)=O)cc1)CCc1ccc(NS(C)(=O)=O)cc1 [DOFETILIDE]
- APDc [1, 10]: 62.54
- FPD measurement [1, 10]: 62.54 FPDc
- APDc [1, 11]: 77.55
- FPD measurement [1, 11]: 77.55 FPDc
- APDc [1, 12]: 79.29
- FPD measurement [1, 12]: 79.29 FPDc
- APDc [1, 13]: 61.92
- FPD measurement [1, 13]: 61.92 FPDc
- FPD measurement [2]: 59.84 FPDc
- FPDc [2]: 24 Values Out Of 24 Were Excluded Due To Quiescence Or 0 Fpdc
- FPDc ([3]; 0.0003 µM, concentration (um) 0.0003 uM): 0.03867
- FPDc ([3]; 0.001 µM, concentration (um) 0.001 uM): 0.04061
- FPDc ([3]; 0.003 µM, concentration (um) 0.003 uM): 0.05119
- FPD measurement [3, 14]: More Than Half The Wells Had A Quiescence Event Or Fpdc Readings Of 0
- FPDc [3, 14]: More Than Half The Wells Had A Quiescence Event Or Fpdc Readings Of 0
- FPD measurement [3, 15]: More Than Half The Wells Had A Quiescence Event Or Fpdc Readings Of 0
- FPDc [3, 15]: More Than Half The Wells Had A Quiescence Event Or Fpdc Readings Of 0
- FPD measurement ([4]; 0.0003169 µM): 1 Values Out Of 1 Were Excluded Due To Quiescence Or 0 Fpdc
- FPDc ([4]; 0.0003169 µM): 1 Values Out Of 1 Were Excluded Due To Quiescence Or 0 Fpdc
- FPD measurement ([4]; 0.001001 µM): 1 Values Out Of 1 Were Excluded Due To Quiescence Or 0 Fpdc
- FPDc ([4]; 0.001001 µM): 1 Values Out Of 1 Were Excluded Due To Quiescence Or 0 Fpdc
- FPD measurement ([4]; 0.003165 µM): 1 Values Out Of 1 Were Excluded Due To Quiescence Or 0 Fpdc
- FPDc ([4]; 0.003165 µM): 1 Values Out Of 1 Were Excluded Due To Quiescence Or 0 Fpdc
- FPD measurement ([4]; 0.01 µM): 1 Values Out Of 1 Were Excluded Due To Quiescence Or 0 Fpdc
- FPDc ([4]; 0.01 µM): 1 Values Out Of 1 Were Excluded Due To Quiescence Or 0 Fpdc
- FPD measurement ([5]; 0.0003169 µM): 5 Values Out Of 5 Were Excluded Due To Quiescence Or 0 Apdc
- FPDc ([5]; 0.0003169 µM): 74.54
- FPD measurement ([5]; 0.001001 µM): 5 Values Out Of 5 Were Excluded Due To Quiescence Or 0 Apdc
- FPDc ([5]; 0.001001 µM): 77.51
- FPDc ([5]; 0.003 µM): 91.98
- FPD measurement ([5]; 0.003165 µM): 5 Values Out Of 5 Were Excluded Due To Quiescence Or 0 Apdc
- FPDc ([5]; 0.003165 µM): 81.19
- FPD measurement ([5]; 0.01 µM): 5 Values Out Of 5 Were Excluded Due To Quiescence Or 0 Apdc
- FPDc ([5]; 0.01 µM): More Than Half The Wells Had A Quiescence Event Or Fpdc Readings Of 0
- FPD measurement [6]: More Than Half The Wells Had A Quiescence Event Or Apdc Readings Of 0
- FPDc [6]: More Than Half The Wells Had A Quiescence Event Or Fpdc Readings Of 0
- APDc [7]: 63.81
- FPD measurement [7]: 63.81 FPDc
- FPD measurement ([8]; 0.0003169 µM): 57.26 FPDc
- FPDc ([8]; 0.0003169 µM): 57.26
- FPD measurement ([8]; 0.001001 µM): 62.9 FPDc
- FPDc ([8]; 0.001001 µM): 62.9
- FPD measurement ([8]; 0.003 µM): 58.92 FPDc
- FPDc ([8]; 0.003 µM): 58.92
- FPD measurement ([8]; 0.003165 µM): 74.44 FPDc
- FPDc ([8]; 0.003165 µM): 74.44
- FPD measurement ([8]; 0.0033 µM): 77.41 FPDc
- FPDc ([8]; 0.0033 µM): 77.41
- FPD measurement ([8]; 0.01 µM): More Than Half The Wells Had A Quiescence Event Or Fpdc Readings Of 0
- FPDc ([8]; 0.01 µM): More Than Half The Wells Had A Quiescence Event Or Fpdc Readings Of 0
- FPDc [9]: 32.45
